Assay: Inhibition of human recombinant GST tagged NIK incubated for 2 hrs in presence of ATP by alpha screen assay

Row | SMILES | IC50 [nM]
1 | CN1CC(F)(F)[C@@](O)(c2cc(-c3cccc(-c4ccnc(Nc5cnn(C)c5)n4)n3)no2)C1=O | < 50
2 | Cc1nocc1Nc1nccc(-c2cccc(-c3cc([C@]4(O)CCN(C)C4=O)on3)n2)n1 | < 50
3 | CN1CC[C@@](O)(c2cn(-c3cccc(-c4ccnc(Nc5ccn(C)n5)n4)n3)nn2)C1=O | < 50
4 | CN1CC[C@@](O)(c2nnc(-c3cccc(-c4ccnc(Nc5cnn(C)c5Cl)n4)n3)s2)C1=O | < 50
5 | CN1CC[C@@](O)(c2cc(-c3cccc(-c4ccnc(Nc5cnn(C)c5C5CC5)n4)n3)no2)C1=O | < 50
6 | Cc1nscc1Nc1nccc(-c2cccc(-c3cc([C@]4(O)CCN(C)C4=O)on3)n2)n1 | < 50
